{
  "source": "patent US20250223331A1",
  "about": "“GLP-1/GIP DUAL-TARGETED POLYPEPTIDE AND FUSION PROTEIN AND APPLICATIONS THEREOF” (SUNSHINE LAKE PHARMA CO., LTD., priority 2021, published 2025)",
  "format_in_all_cases": "in vivo",
  "key": {"normal C57BL/6 mice [1]": {"tested_on": "normal C57BL/6 mice", "assay": "glucose tolerance in normal C57BL/6 mice (Example 7)", "settings": "3 nmol/kg s.c. single dose, 72 h after dose", "experimental": "(§1) Experimental methods: Normal C57BL/6 mice were randomly divided into 6 groups (Vehicle group, Dulaglutide group, HEC-G123 group, HEC-G128 group, HEC-G131 group, HEC-G132 group) according to blood glucose and body weight, with 8 mice in each group. For the groups of Dulaglutide, HEC-G123, HEC-G128, HEC-G131 and HEC-G132, the corresponding drug was injected subcutaneously into the mice at a dose of 3 nmol/kg, and for the control group, the corresponding vehicle was injected subcutaneously.\n(§2) After 60 h of single administration, the mice were fasted for 12 h and drank water freely. Blood was collected from the tail vein to measure the basal blood glucose value of each group, then 2 g/kg of glucose solution was injected intraperitoneally, and blood glucose was measured at 15, 30, 60, and 0 min after glucose administration. According to the blood glucose values measured at different time points, the blood glucose concentration-time curve was plotted, and the AUC0˜90min of each dose group was calculated, and the experimental results are shown in Table 6 and FIGS. 1-2."}, "normal C57BL/6 mice [2]": {"tested_on": "normal C57BL/6 mice", "assay": "glucose tolerance in normal C57BL/6 mice (Example 8)", "settings": "3 nmol/kg s.c. single dose, 72 h after dose", "experimental": "as §1, with “HEC-G113” for “HEC-G123”, “HEC-G122” for “HEC-G128”, “HEC-G126” for “HEC-G131”, “HEC-G127” for “HEC-G132”, “Dulaglutide (Dulaglutide purchased from Eli Lilly, lot number was D256504), HEC-G113, HEC-G122, HEC-G126” for “Dulaglutide, HEC-G123, HEC-G128, HEC-G131”, “HEC-G127,” for “HEC-G132,”\nas §2, with “60, 90” for “60,”, “Table 7” for “Table 6”, “FIGS. 3-4” for “FIGS. 1-2.”"}, "normal C57BL/6 mice [3]": {"tested_on": "normal C57BL/6 mice", "assay": "glucose tolerance in normal C57BL/6 mice (Example 7)", "settings": "3 nmol/kg s.c. single dose, 72 h after dose, 2 g/kg glucose i.p."}, "[4]": {"settings": "blood glucose concentration-time curve"}},
  "note": "Marks after values point to notes of the source that are not given here.",
  "data": [
    {"substance": "Dulaglutide [reference compound]", "values": [
      {"measurement": "Blood glucose value 0 min", "setting": "normal C57BL/6 mice [1]; 2 g/kg glucose i.p., 0 min", "result": "4.4 ± 0.8", "unit": "mM"},
      {"measurement": "Blood glucose value 15 min", "setting": "normal C57BL/6 mice [1]; 2 g/kg glucose i.p., 15 min", "result": "15.7 ± 2.2", "unit": "mM"},
      {"measurement": "Blood glucose value 30 min", "setting": "normal C57BL/6 mice [1]; 2 g/kg glucose i.p., 30 min", "result": "12.7 ± 2.4", "unit": "mM"},
      {"measurement": "Blood glucose value 60 min", "setting": "normal C57BL/6 mice [1]; 2 g/kg glucose i.p., 60 min", "result": "8.1 ± 1.0", "unit": "mM"},
      {"measurement": "AUC0-90 min", "setting": "normal C57BL/6 mice [1]; [4]", "result": "899.0 ± 105.4 ^a"},
      {"measurement": "Blood glucose value 0 min", "setting": "normal C57BL/6 mice [2]; 2 g/kg glucose i.p., 0 min", "result": "4.3 ± 0.4", "unit": "mM"},
      {"measurement": "Blood glucose value 15 min", "setting": "normal C57BL/6 mice [2]; 2 g/kg glucose i.p., 15 min", "result": "15.3 ± 3.1", "unit": "mM"},
      {"measurement": "Blood glucose value 30 min", "setting": "normal C57BL/6 mice [2]; 2 g/kg glucose i.p., 30 min", "result": "15.1 ± 2.7", "unit": "mM"},
      {"measurement": "Blood glucose value 60 min", "setting": "normal C57BL/6 mice [2]; 2 g/kg glucose i.p., 60 min", "result": "9.1 ± 1.3", "unit": "mM"},
      {"measurement": "Blood glucose value 90 min", "setting": "normal C57BL/6 mice [2]; 2 g/kg glucose i.p., 90 min", "result": "6.8 ± 0.9", "unit": "mM"},
      {"measurement": "AUC0-90 min", "setting": "normal C57BL/6 mice [2]; [4]", "result": "976.2 ± 135.6 ^a"},
      {"measurement": "Blood glucose value 90 min", "setting": "normal C57BL/6 mice [3]", "result": "6.8 ± 0.6", "unit": "mM"}
    ]}
  ]
}
